These compounds were tested on 168753-222-R-J1-PDC complex spheroid viability (assay: Anticancer human tumor 168753-222-R-J1-PDC patient-derived bladder carcinoma cell line growth inhibition [CLK]). Details: second compound 1 µM; first compound 0.1 µM; active compounds read low.
Procedure, shortened: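 Multi-cell-type spheroids combined patient-derived tumor cells with HUVEC endothelial cells and human mesenchymal stem cells. Paired agents were dosed in half-log steps down from about clinical Cmax, or from 10 microM where Cmax was unknown.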
Work on `COc1c(OCCCN2CCOCC2)ccc2c3n(c(=NC(=O)c4cnc(N)nc4)nc12)CCN3` + CNC(=O)c1ccc(Nc2nc(OC3CCCC3)c3c(-c4ccc5nc(C)oc5c4)c[nH]c3n2)c(OC)c1 yielded a viability, T/C of 0.43%.

Same assay, conditions: second compound 1 µM; first compound 0.316 µM; active compounds read low
In the case of `C#Cc1c(F)ccc2cc(O)cc(-c3ncc4c(N5CC6CCC(C5)N6)nc(OCC56CCCN5CC(F)C6)nc4c3F)c12` (stereo unspecified) + CNC(=O)c1ccc(Nc2nc(OC3CCCC3)c3c(-c4ccc5nc(C)oc5c4)c[nH]c3n2)c(OC)c1, the viability, T/C is reported as 36.7%.
With `C=C(F)C(=O)N1CCN(c2nc(OCC3CCCN3C)nc3c2CCN(c2cccc4cccc(Cl)c24)C3)CC1CC#N` (stereo unspecified) + CNC(=O)c1ccc(Nc2nc(OC3CCCC3)c3c(-c4ccc5nc(C)oc5c4)c[nH]c3n2)c(OC)c1 the viability, T/C was 45.5%.
In the case of `CC(CO)NC(=O)c1cc(-c2ccc(Cl)cc2)nn(-c2cnn(C)c2)c1=O` (stereo unspecified) + CNC(=O)c1ccc(Nc2nc(OC3CCCC3)c3c(-c4ccc5nc(C)oc5c4)c[nH]c3n2)c(OC)c1, the viability, T/C is reported as 44%.
Compound `CC(Nc1ccc2c(c1)OCCn1cc(N3C(=O)OCC3C(F)F)nc1-2)C(N)=O` (stereo unspecified) + CNC(=O)c1ccc(Nc2nc(OC3CCCC3)c3c(-c4ccc5nc(C)oc5c4)c[nH]c3n2)c(OC)c1 has a viability, T/C of 6.89%.
`COc1c(OCCCN2CCOCC2)ccc2c3n(c(=NC(=O)c4cnc(N)nc4)nc12)CCN3` + CNC(=O)c1ccc(Nc2nc(OC3CCCC3)c3c(-c4ccc5nc(C)oc5c4)c[nH]c3n2)c(OC)c1 showed a viability, T/C of 0.26%.

Same assay, conditions: second compound 1 µM; first compound 1 µM; active compounds read low
Work on `C#Cc1c(F)ccc2cc(O)cc(-c3ncc4c(N5CC6CCC(C5)N6)nc(OCC56CCCN5CC(F)C6)nc4c3F)c12` (stereo unspecified) + CNC(=O)c1ccc(Nc2nc(OC3CCCC3)c3c(-c4ccc5nc(C)oc5c4)c[nH]c3n2)c(OC)c1 yielded a viability, T/C of 22.7%.
Work on `C=C(F)C(=O)N1CCN(c2nc(OCC3CCCN3C)nc3c2CCN(c2cccc4cccc(Cl)c24)C3)CC1CC#N` (stereo unspecified) + CNC(=O)c1ccc(Nc2nc(OC3CCCC3)c3c(-c4ccc5nc(C)oc5c4)c[nH]c3n2)c(OC)c1 yielded a viability, T/C of 28.8%.
`CC(CO)NC(=O)c1cc(-c2ccc(Cl)cc2)nn(-c2cnn(C)c2)c1=O` (stereo unspecified) + CNC(=O)c1ccc(Nc2nc(OC3CCCC3)c3c(-c4ccc5nc(C)oc5c4)c[nH]c3n2)c(OC)c1 was tested, and the viability, T/C was 32.6%.
`CC(Nc1ccc2c(c1)OCCn1cc(N3C(=O)OCC3C(F)F)nc1-2)C(N)=O` (stereo unspecified) + CNC(=O)c1ccc(Nc2nc(OC3CCCC3)c3c(-c4ccc5nc(C)oc5c4)c[nH]c3n2)c(OC)c1 gave a viability, T/C of 2.64%.
`COc1c(OCCCN2CCOCC2)ccc2c3n(c(=NC(=O)c4cnc(N)nc4)nc12)CCN3` + CNC(=O)c1ccc(Nc2nc(OC3CCCC3)c3c(-c4ccc5nc(C)oc5c4)c[nH]c3n2)c(OC)c1 was tested, and the viability, T/C was 1.09%.

Same assay, conditions: second compound 1 µM; first compound 3.16 µM; active compounds read low
With `C#Cc1c(F)ccc2cc(O)cc(-c3ncc4c(N5CC6CCC(C5)N6)nc(OCC56CCCN5CC(F)C6)nc4c3F)c12` (stereo unspecified) + CNC(=O)c1ccc(Nc2nc(OC3CCCC3)c3c(-c4ccc5nc(C)oc5c4)c[nH]c3n2)c(OC)c1 the viability, T/C was 30.4%.
In the case of `C=C(F)C(=O)N1CCN(c2nc(OCC3CCCN3C)nc3c2CCN(c2cccc4cccc(Cl)c24)C3)CC1CC#N` (stereo unspecified) + CNC(=O)c1ccc(Nc2nc(OC3CCCC3)c3c(-c4ccc5nc(C)oc5c4)c[nH]c3n2)c(OC)c1, the viability, T/C is reported as 46.8%.
Compound `CC(CO)NC(=O)c1cc(-c2ccc(Cl)cc2)nn(-c2cnn(C)c2)c1=O` (stereo unspecified) + CNC(=O)c1ccc(Nc2nc(OC3CCCC3)c3c(-c4ccc5nc(C)oc5c4)c[nH]c3n2)c(OC)c1 has a viability, T/C of 55.4%.
With `CC(Nc1ccc2c(c1)OCCn1cc(N3C(=O)OCC3C(F)F)nc1-2)C(N)=O` (stereo unspecified) + CNC(=O)c1ccc(Nc2nc(OC3CCCC3)c3c(-c4ccc5nc(C)oc5c4)c[nH]c3n2)c(OC)c1 the viability, T/C was 1.07%.

Same assay, conditions: second compound 1 µM; first compound 10 µM; active compounds read low
In the case of `C#Cc1c(F)ccc2cc(O)cc(-c3ncc4c(N5CC6CCC(C5)N6)nc(OCC56CCCN5CC(F)C6)nc4c3F)c12` (stereo unspecified) + CNC(=O)c1ccc(Nc2nc(OC3CCCC3)c3c(-c4ccc5nc(C)oc5c4)c[nH]c3n2)c(OC)c1, the viability, T/C is reported as 16.9%.
`C=C(F)C(=O)N1CCN(c2nc(OCC3CCCN3C)nc3c2CCN(c2cccc4cccc(Cl)c24)C3)CC1CC#N` (stereo unspecified) + CNC(=O)c1ccc(Nc2nc(OC3CCCC3)c3c(-c4ccc5nc(C)oc5c4)c[nH]c3n2)c(OC)c1 showed a viability, T/C of 31.7%.
For `CC(CO)NC(=O)c1cc(-c2ccc(Cl)cc2)nn(-c2cnn(C)c2)c1=O` (stereo unspecified) + CNC(=O)c1ccc(Nc2nc(OC3CCCC3)c3c(-c4ccc5nc(C)oc5c4)c[nH]c3n2)c(OC)c1, the viability, T/C was 53.1%.
Compound `CC(Nc1ccc2c(c1)OCCn1cc(N3C(=O)OCC3C(F)F)nc1-2)C(N)=O` (stereo unspecified) + CNC(=O)c1ccc(Nc2nc(OC3CCCC3)c3c(-c4ccc5nc(C)oc5c4)c[nH]c3n2)c(OC)c1 has a viability, T/C of 2.28%.

Same assay, conditions: second compound 3.16 µM; first compound 0.00316 µM; active compounds read low
`COc1c(OCCCN2CCOCC2)ccc2c3n(c(=NC(=O)c4cnc(N)nc4)nc12)CCN3` + CNC(=O)c1ccc(Nc2nc(OC3CCCC3)c3c(-c4ccc5nc(C)oc5c4)c[nH]c3n2)c(OC)c1 showed a viability, T/C of 14.6%.

Same assay, conditions: second compound 3.16 µM; first compound 0.01 µM; active compounds read low
`COc1c(OCCCN2CCOCC2)ccc2c3n(c(=NC(=O)c4cnc(N)nc4)nc12)CCN3` + CNC(=O)c1ccc(Nc2nc(OC3CCCC3)c3c(-c4ccc5nc(C)oc5c4)c[nH]c3n2)c(OC)c1 showed a viability, T/C of 12.3%.

Same assay, conditions: second compound 3.16 µM; first compound 0.0316 µM; active compounds read low
Compound `C#Cc1c(F)ccc2cc(O)cc(-c3ncc4c(N5CC6CCC(C5)N6)nc(OCC56CCCN5CC(F)C6)nc4c3F)c12` (stereo unspecified) + CNC(=O)c1ccc(Nc2nc(OC3CCCC3)c3c(-c4ccc5nc(C)oc5c4)c[nH]c3n2)c(OC)c1 has a viability, T/C of 28.7%.
`C=C(F)C(=O)N1CCN(c2nc(OCC3CCCN3C)nc3c2CCN(c2cccc4cccc(Cl)c24)C3)CC1CC#N` (stereo unspecified) + CNC(=O)c1ccc(Nc2nc(OC3CCCC3)c3c(-c4ccc5nc(C)oc5c4)c[nH]c3n2)c(OC)c1 gave a viability, T/C of 23.4%.
`CC(CO)NC(=O)c1cc(-c2ccc(Cl)cc2)nn(-c2cnn(C)c2)c1=O` (stereo unspecified) + CNC(=O)c1ccc(Nc2nc(OC3CCCC3)c3c(-c4ccc5nc(C)oc5c4)c[nH]c3n2)c(OC)c1 gave a viability, T/C of 24.6%.
`CC(Nc1ccc2c(c1)OCCn1cc(N3C(=O)OCC3C(F)F)nc1-2)C(N)=O` (stereo unspecified) + CNC(=O)c1ccc(Nc2nc(OC3CCCC3)c3c(-c4ccc5nc(C)oc5c4)c[nH]c3n2)c(OC)c1 showed a viability, T/C of 14.9%.
Work on `COc1c(OCCCN2CCOCC2)ccc2c3n(c(=NC(=O)c4cnc(N)nc4)nc12)CCN3` + CNC(=O)c1ccc(Nc2nc(OC3CCCC3)c3c(-c4ccc5nc(C)oc5c4)c[nH]c3n2)c(OC)c1 yielded a viability, T/C of 2.46%.

Reference: PubChem BioAssay AID2060626 (Molecular Pharmacology Branch, DTP, NCI, 2025)
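Further: luminescence signal used as surrogate for viable cell amount; viability measured after seven days of drug exposure; 100% = DMSO vehicle control wells.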
